Assay results published in paper PMC4140855, “Production of an Attenuated Phenol-Soluble Modulin Variant Unique to the MRSA Clonal Complex 30 Increases Severity of Bloodstream Infection” (PLoS Pathogens, 2014).

How the values were obtained:
[1] = tested on: kidneys (hematogenous seeding); assay: Mouse bacteremia (renal abscess) model; assay type: in vivo; conditions: expressed in MRSA252 and 22030, versus isogenic strains expressing non-CC30 PSMα3
Procedure: (A) The MRSA252 strain (252, expressing PSMα3N22Y) was compared to a strain (252*) in which the psmα3 gene was changed to express non-CC30 PSMα3 in a mouse model of blood infection. Hematogenous seeding into the kidneys was measured 4 days after infecting mice via the tail vein with 1×10^7 CFU. Results from kidneys with considerable bacterial numbers (>10^3 CFU) are shown in the graph; the number of kidneys with lower or no bacteria is shown at the bottom. Analysis of significance was performed with the numbers obtained from all kidneys; *, p<0.05. Number of mice used per strain: 10. Two counts per analyzed kidney were performed. (B) Experiment as in (A) with strain 22030 expressing PSMα3N22Y and the isogenic 22030* strain expressing PSMα3. Number of mice used per strain: 20; two counts per analyzed kidney are included; inoculum: 1×10^6. *, p<0.05. (C, D) Tubulointerstitial nephritis with large colonies of bacteria (arrows) in kidneys infected with strain 252, magnification 100× (C) and 200× (D). (E) Absence of signs of infection in kidneys infected with strain 252* (magnification 100×).
For the renal abscess model, S. aureus strains were inoculated from a pre-culture and grown to mid-exponential growth phase (∼2 h), harvested, washed, and diluted with sterile PBS. […]

human neutrophils = conditions: ref [11]; cited from earlier work
Excerpt: PSMs are short, amphipathic, α-helical peptides with a major impact on S. aureus virulence, [11]. The PSMα peptides of S. aureus in particular cause lysis of a variety of cell types, including neutrophils (or polymorphonuclear leukocytes, PMNs), monocytes, erythrocytes, and osteoblasts [11]–[13]. The rather low target specificity of PSM-mediated cytolysis is due to the fact that lysis is believed to be receptor-independent, [15], which is reflected by the capacity of PSMs to lyse artificial vesicles. In addition, PSMs have pro-inflammatory capacities that are recep ...

Row | Compound | Capacity to cause sepsis and subsequent complications [1] | Capacity to elicit chemotaxis by neutrophils, relative to other PSMs (human neutrophils) | Pro-inflammatory and cytolytic potency relative to other PSMs of S. aureus (human neutrophils)
1 | CSCC[C@H](NC=O)C(=O)N[C@@H](CCC(=O)O)C(=O)N[C@@H](Cc1ccccc1)C(=O)N[C@H](C(=O)N[C@@H](C)C(=O)N[C@@H](CCCCN)C(=O)N[C@@H](CC(C)C)C(=O)N[C@@H](Cc1ccccc1)C(=O)N[C@@H](CCCCN)C(=O)N[C@@H](Cc1ccccc1)C(=O)N[C@@H](Cc1ccccc1)C(=O)N[C@@H](CCCCN)C(=O)N[C@@H](CC(=O)O)C(=O)N[C@@H](CC(C)C)C(=O)N[C@@H](CC(C)C)C(=O)NCC(=O)N[C@@H](CCCCN)C(=O)N[C@@H](Cc1ccccc1)C(=O)N[C@@H](CC(C)C)C(=O)NCC(=O)N[C@@H](CC(N)=O)C(=O)N[C@@H](Cc1ccc(O)cc1)C(=O)O)C(C)C [PSMα3N22Y] | increased capacity to cause sepsis and subsequent complications |  | 
2 | CSCC[C@H](NC=O)C(=O)N[C@@H](CCC(=O)O)C(=O)N[C@@H](Cc1ccccc1)C(=O)N[C@H](C(=O)N[C@@H](C)C(=O)N[C@@H](CCCCN)C(=O)N[C@@H](CC(C)C)C(=O)N[C@@H](Cc1ccccc1)C(=O)N[C@@H](CCCCN)C(=O)N[C@@H](Cc1ccccc1)C(=O)N[C@@H](Cc1ccccc1)C(=O)N[C@@H](CCCCN)C(=O)N[C@@H](CC(=O)O)C(=O)N[C@@H](CC(C)C)C(=O)N[C@@H](CC(C)C)C(=O)NCC(=O)N[C@@H](CCCCN)C(=O)N[C@@H](Cc1ccccc1)C(=O)N[C@@H](CC(C)C)C(=O)NCC(=O)N[C@@H](CC(N)=O)C(=O)N[C@@H](CC(N)=O)C(=O)O)C(C)C [PSMα3] |  | by far exceeds that of any other PSM of S. aureus | by far most pro-inflammatory and cytolytic PSM of S. aureus
